From ChEMBL document CHEMBL2406913, “First synthesis and biological evaluation of 4-amino-2-aryl-6,9-dichlorobenzo[g]pteridines as inhibitors of TNF-α and IL-6” (Eur J Med Chem, 2013) come the findings set out here.

In data set [1] the test system is HL-60. As to the kind of experiment: Antiinflammatory activity in human HL-60 derived macrophage-like cells assessed as inhibition of LPS-induced TNFalpha production at 50 uM treated 30 mins before LPS stimulation measured after 24 hrs by ELISA. The format is functional. A general note: An ELISA detects its analyte on a solid surface through an enzyme-linked reagent.

The test system of data set [2] is HL-60. As to the kind of experiment: Antiinflammatory activity in human HL-60 derived macrophage-like cells assessed as inhibition of LPS-induced IL-6 production at 50 uM treated 30 mins before LPS stimulation measured after 24 hrs by ELISA. The format is functional.
Data set [3] has as its system HL-60. As to the kind of experiment: Antiinflammatory activity in human HL-60 derived macrophage-like cells assessed as inhibition of LPS-induced IL-6 production treated 30 mins before LPS stimulation measured after 24 hrs by ELISA. The format is functional, cell-based.
Data set [4] deals with HL-60. Put plainly: Cytotoxicity against human HL-60 derived macrophage-like cells at 50 uM after 1 hr by MTT assay. The format is cell-based. As to conditions: hl-60, 1 h. Background: Tetrazolium dyes change colour on reduction, which living cells bring about.
The subject of data set [5] is HL-60. As to the kind of experiment: Antiinflammatory activity in human HL-60 derived macrophage-like cells assessed as inhibition of LPS-induced TNFalpha production treated 30 mins before LPS stimulation measured after 24 hrs by ELISA. The data set is classed as functional, cell-based.

Regarding `Nc1nc(-c2cc(C(F)(F)F)cc(C(F)(F)F)c2)nc2nc3c(Cl)ccc(Cl)c3nc12`, the inhibition at 50 µM in the data set on HL-60 [1] was found to be 99.7%; in the data set with HL-60 [2] it was 100%. The IC50 in the data set on HL-60 [3] came to 22.9 µM; in the data set on HL-60 [5], 7.3 µM. The molecule further displayed an Activity with HL-60 [4] of 0%.

Consider `Nc1ccc(-c2nc(N)c3nc4c(Cl)ccc(Cl)c4nc3n2)cc1`, for which the inhibition at 50 µM in the data set with HL-60 [1] amounted to 63.2%; with HL-60 [2], 85.1%. The half-inhibitory concentration (IC50) in the data set with HL-60 [3] turned out to be 25.7 µM; with HL-60 [5], 36.2 µM. This molecule showed an Activity in the data set on HL-60 [4] of 15.7%.

For `Cc1ccc(-c2nc(N)c3nc4c(Cl)ccc(Cl)c4nc3n2)cc1F`, the inhibition at 50 µM in the data set on HL-60 [1] turned out to be 80%; in the data set on HL-60 [2], 93%. The IC50 in the data set on HL-60 [3] was found to be 26.5 µM; with HL-60 [5], 5.8 µM. In the data set with HL-60 [4], this molecule displayed an Activity of 1.8%.

In the case of `Nc1nc(-c2ccc(C(F)(F)F)cc2)nc2nc3c(Cl)ccc(Cl)c3nc12`, the inhibition at 50 µM was 67.2% in the data set on HL-60 [1] and 83% with HL-60 [2]. The values for the IC50 in the data set on HL-60 [3] and in the data set with HL-60 [5] were 35.4 µM and 8.7 µM, respectively. For the same molecule, in the data set on HL-60 [4], the Activity is 0%.

Turning to `Cc1ccc(-c2nc(N)c3nc4c(Cl)ccc(Cl)c4nc3n2)cc1`, the inhibition at 50 µM is 87.4% in the data set on HL-60 [1] and 95.4% in the data set on HL-60 [2]. Moreover, the values for the IC50 with HL-60 [3] and in the data set with HL-60 [5] were 25.2 µM and 7.4 µM, respectively. Also, in the data set with HL-60 [4], the Activity was 3.9%.

For `Nc1nc(-c2ccc(Cl)cc2)nc2nc3c(Cl)ccc(Cl)c3nc12`, the inhibition at 50 µM was 6.7% in the data set with HL-60 [1] and 54.3% with HL-60 [2]. The IC50 in the data set with HL-60 [3] was found to be 46.9 µM. For the same molecule, in the data set with HL-60 [4], the Activity amounted to 2.5%.

As for `Nc1nc(-c2ccccc2)nc2nc3c(Cl)ccc(Cl)c3nc12`, the inhibition at 50 µM with HL-60 [1] is 75.2%; with HL-60 [2], 73.8%. The IC50 stood at 34.4 µM in the data set with HL-60 [3] and 35.9 µM in the data set with HL-60 [5]. The same molecule showed an Activity with HL-60 [4] of 13%.

In the case of `Cc1cccc(-c2nc(N)c3nc4c(Cl)ccc(Cl)c4nc3n2)c1`, the inhibition at 50 µM with HL-60 [1] came to 100%; in the data set with HL-60 [2], 95.1%. The IC50 is 25.7 µM in the data set on HL-60 [3] and 6 µM in the data set on HL-60 [5]. The molecule further registered an Activity with HL-60 [4] of 0.2%.

Turning to `Nc1nc(-c2cccc([N+](=O)[O-])c2)nc2nc3c(Cl)ccc(Cl)c3nc12`, the inhibition at 50 µM stood at 0% in the data set on HL-60 [1] and 41.3% with HL-60 [2]. Besides, the Activity in the data set on HL-60 [4] came to 1.5%.

Consider `C[S+]([O-])c1ccc(-c2nc(-c3ccncc3)c(-c3ccc(F)cc3)[nH]2)cc1` (stereo unspecified) [SB-203580], for which the inhibition at 50 µM was 68.1% in the data set with HL-60 [1] and 8.4% in the data set with HL-60 [2]. Also, the Activity in the data set with HL-60 [4] worked out at 0%. Besides, the IC50 in the data set with HL-60 [5] turned out to be 8.6 µM.

What is called inhibition is the drop in the measured response relative to a control, in per cent. Usually IC50 stands for the midpoint of a concentration-inhibition curve.
